Each block holds one compound with its values, some of them ahead of it. Active and inactive are the calls of the source. The calls are words filed in the database; no cut-off is given here. Where a SMILES comes first, the peptide text is derived from it. Bridges are numbered along the chain shown (N, C = ends). [ ]: non-standard residue; d: D form. hSer = N[C@@H](CCO)C(=O)O; Dab = NCC[C@H](N)C(=O)O
Assays:
[1] = molecular target: T1, Urotensin-2 receptor (Homo sapiens) (UniProt Q9UKP6); experiment: Modulation of human UTR stably expressed in HEK293 cells assessed as increase in Ca2+ level at 0.01 to 1 nM by Fura 2-AM dye based calcium mobilization assay; assay type: functional, cell-based; settings: filed as modulator, dose 0.01-1 nM
T1 sequence (whole entry): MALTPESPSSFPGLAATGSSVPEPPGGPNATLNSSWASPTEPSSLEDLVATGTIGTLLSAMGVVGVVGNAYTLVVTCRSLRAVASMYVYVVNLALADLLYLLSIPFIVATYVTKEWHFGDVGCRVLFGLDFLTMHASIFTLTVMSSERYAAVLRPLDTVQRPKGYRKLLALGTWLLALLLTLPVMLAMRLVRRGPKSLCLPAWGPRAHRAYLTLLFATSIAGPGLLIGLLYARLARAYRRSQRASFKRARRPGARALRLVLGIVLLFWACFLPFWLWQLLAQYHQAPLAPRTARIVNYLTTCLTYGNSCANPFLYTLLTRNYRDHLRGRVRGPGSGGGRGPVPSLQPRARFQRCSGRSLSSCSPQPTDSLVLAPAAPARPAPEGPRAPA

[2] = molecular target: T2, Urotensin-2 receptor (Homo sapiens, UniProt Q9UKP6); experiment: Modulation of human UTR stably expressed in HEK293 cells assessed as increase in Ca2+ level by Fura 2-AM dye based calcium mobilization assay; assay type: functional, cell-based
T2 sequence (Q9UKP6 whole entry): T1 sequence (whole entry)

[3] = tested on: Aortic ring; experiment: Induction of contraction in Albino Wistar rat aortic ring at 1 to 30 nM relative to control; assay type: functional, Aorta; settings: dose 1-30 nM
[4] = molecular target: T1, Urotensin-2 receptor (Homo sapiens); experiment: Modulation of human UTR stably expressed in HEK293 cells assessed as increase in Ca2+ level at 0.1 to 100 nM by Fura 2-AM dye based calcium mobilization assay; assay type: functional, cell-based; settings: dose 0.1-100 nM
[5] = molecular target: T1, Urotensin-2 receptor (Homo sapiens); experiment: Modulation of human UTR stably expressed in HEK293 cells assessed as increase in Ca2+ level at 0.1 nM by Fura 2-AM dye based calcium mobilization assay; assay type: functional, cell-based; settings: filed as modulator
[6] = tested on: Aortic ring; experiment: Induction of contraction in Albino Wistar rat aortic ring at 1 to 30 nM; assay type: functional, tissue-based; settings: Aorta, dose 1-30 nM
[7] = tested on: Aortic ring; experiment: Induction of contraction in Albino Wistar rat aortic ring assessed as Emax of hU-II at 0.1 uM incubated for 30 mins in presence of hU-II (reference value: 224.8 +/- 11.71 dyne/mg); assay type: functional, Aorta; settings: 0.5 h
[8] = tested on: Aortic ring; experiment: Induction of contraction in Albino Wistar rat aortic ring assessed as Emax of hU-II at 10 uM incubated for 30 mins in presence of hU-II (reference value: 238.4 +/- 9.53 dyne/mg); assay type: functional, Aorta; settings: 0.5 h
[9] = tested on: Aortic ring; experiment: Induction of contraction in Albino Wistar rat aortic ring assessed as Emax of hU-II at 1 uM incubated for 30 mins in presence of hU-II (reference value: 214.5 +/- 10.51 dyne/mg); assay type: functional, Aorta; settings: 0.5 h
[10] = tested on: Aortic ring; experiment: Induction of contraction in Albino Wistar rat aortic ring assessed as Emax of U-II(4-11) at 0.1 uM incubated for 30 mins in presence of U-II(4-11) (reference value: 159.8 +/- 7.39 dyne/mg); assay type: functional, Aorta; settings: 0.5 h
[11] = tested on: Aortic ring; experiment: Induction of contraction in Albino Wistar rat aortic ring assessed as Emax of U-II(4-11) at 1 uM incubated for 30 mins in presence of U-II(4-11) (reference value: 159.8 +/- 7.3 dyne/mg); assay type: functional, Aorta; settings: 0.5 h
[12] = tested on: Aortic ring; experiment: Induction of contraction in Albino Wistar rat aortic ring assessed as Emax of U-II(4-11) at 10 uM incubated for 30 mins in presence of U-II(4-11) (reference value: 152.4 +/- 5.1 dyne/mg); assay type: functional, Aorta; settings: 0.5 h
[13] = tested on: Aortic ring; experiment: Induction of contraction in Albino Wistar rat aortic ring assessed as Emax of [Ala1]U-II at 0.1 uM incubated for 30 mins in presence of [Ala1]U-II (reference value: 308.1 +/- 21.4 dyne/mg); assay type: functional, Aorta; settings: 0.5 h
[14] = tested on: Aortic ring; experiment: Induction of contraction in Albino Wistar rat aortic ring assessed as Emax of [Ala1]U-II at 10 uM incubated for 30 mins in presence of [Ala1]U-II (reference value: 391.6 +/- 38.83 dyne/mg); assay type: functional, Aorta; settings: 0.5 h
[15] = tested on: Aortic ring; experiment: Induction of contraction in Albino Wistar rat aortic ring assessed as Emax of [Ala1]U-II at 1 uM incubated for 30 mins in presence of [Ala1]U-II (reference value: 153.3 +/- 10.75 dyne/mg); assay type: functional, Aorta; settings: 0.5 h

Activity [1]: Active
Structure (SMILES): CC(C)[C@H](NC(=O)[C@@H]1CSSC[C@H](NC(=O)[C@H](CC(=O)O)NC(=O)[C@@H]2CCCN2C(=O)[C@@H](NC(=O)[C@H](C)N)[C@@H](C)O)C(=O)N[C@@H](Cc2ccccc2)C(=O)N[C@@H](Cc2c[nH]c3ccccc23)C(=O)N[C@@H](CCCCN)C(=O)N[C@@H](Cc2ccc(O)cc2)C(=O)N1)C(=O)O (H-ATPDCFWKYCV-OH; disulfide 5-10)

EC50 [2]: 1.2 nM
Structure (SMILES): CC(C)[C@H](NC(=O)[C@@H]1CSSC[C@H](NC(=O)[C@@H](N)CC(=O)O)C(=O)N[C@@H](Cc2ccccc2)C(=O)N[C@@H](Cc2c[nH]c3ccccc23)C(=O)N[C@@H](CCCCN)C(=O)N[C@@H](Cc2ccc(O)cc2)C(=O)N1)C(=O)O (H-DCFWKYCV-OH; disulfide 2-7)

Structure (SMILES): CC(C)[C@H](NC(=O)[C@@H]1CSSC[C@H](NC(=O)[C@H](CC(=O)O)NC(=O)[C@@H]2CCCN2C(=O)[C@@H](NC(=O)[C@@H](N)CCN)[C@@H](C)O)C(=O)N[C@@H](Cc2ccccc2)C(=O)N[C@@H](Cc2c[nH]c3ccccc23)C(=O)N[C@@H](CCCCN)C(=O)N[C@@H](Cc2ccc(O)cc2)C(=O)N1)C(=O)O (H-[Dab]TPDCFWKYCV-OH; disulfide 5-10)
Emax [3]: 97.78 dyn/mg

Activity [4]: inactive | Activity [5]: Active
Structure (SMILES): CC(C)[C@H](NC(=O)[C@@H]1CSSC[C@H](NC(=O)[C@H](CC(=O)O)NC(=O)[C@@H]2CCCN2C(=O)[C@@H](NC(=O)[C@@H](N)CCO)[C@@H](C)O)C(=O)N[C@@H](Cc2ccccc2)C(=O)N[C@@H](Cc2c[nH]c3ccccc23)C(=O)N[C@@H](CCCCN)C(=O)N[C@@H](Cc2ccc(O)cc2)C(=O)N1)C(=O)O (H-[hSer]TPDCFWKYCV-OH; disulfide 5-10)
Emax [3]: 144.2 dyn/mg

Activity ([4]; filed as modulator): Active
Structure (SMILES): CC(C)[C@H](NC(=O)[C@@H]1CSSC(C)(C)[C@H](NC(=O)[C@H](CC(=O)O)NC(=O)[C@@H]2CCCN2C(=O)[C@@H](NC(=O)[C@@H](N)CCC(=O)O)[C@@H](C)O)C(=O)N[C@@H](Cc2ccccc2)C(=O)N[C@H](Cc2c[nH]c3ccccc23)C(=O)N[C@@H](CCCN)C(=O)N[C@@H](Cc2ccc(O)cc2)C(=O)N1)C(=O)O
Activity [6]: inactive | Emax [7]: 251.6 dyn/mg | Emax [8]: 327 dyn/mg | Emax [9]: 143.5 dyn/mg | Emax [10]: 223.4 dyn/mg | Emax [11]: 166.6 dyn/mg | Emax [12]: 231 dyn/mg | Emax [13]: 216.19 dyn/mg | Emax [14]: 727.7 dyn/mg | Emax [15]: 146.8 dyn/mg
